From patent publication US8513272B2, “Forms of a fused pyrrolocarbazole compound” (Cephalon, Inc., priority 2008, dated 2013)
Converted amounts (≈) assume the structure as drawn.

Assay: Solubility of various forms of Compound I in water and pH 1, pH 2 (HCl/KCl) buffers at 25° C., HPLC analysis
Assay type: physicochemical
Conditions: stirring 300 rpm, saturated solution; for Solubility, pH 1 Buffer: pH 1 HCl/KCl buffer; for Solubility, pH 2 Buffer: pH 2 HCl/KCl buffer
Experimental: Solubility of Various Forms of Compound I in Water and pH1, pH2 Buffers
Solubility was measured by adding 25 mg of the various forms of Compound I or an amount adequate to maintain a saturated solution in water and pH 1, pH 2 (HCl/KCl buffers). Temperature of 25° C. and a stirring rate of 300 rpm were maintained by using a HEL Crystal Scan unit (HEL, UK). Samples were withdrawn at the times indicated, filtered and analyzed by HPLC for Compound I using the method described below.
HPLC Method for Measurement of CEP11981 Content of Solubility Samples
Testing was performed on a calibrated ThermoFinnigan High Performance Liquid Chromatography (HPLC) system designated LC-0410-AD. The system comprises a P4000 pump, AS3000 autosampler, and UV2000 detector. A TCM 2000 temperature control module was used to heat the column. All standard solutions and samples were prepared in Class A glass volumetric flasks and were placed in autosampler vials. Standard weightings were done using a calibrated Mettler analytical balance. The sample preparations were centrifuged using an Eppendorf microcentrifuge. The primary chromatography data was acquired and integrated using ChromQuest software. Microsoft Office Excel 2003 was used for the calculation of results.
Column: MS C18, 150×4.6 mm ID, 3.5μ Waters, m Xterra packing
Column Temperature: 30° C.
Detector: UV/VIS @ 270 nm
Mobile Phase A: 10 mM Ammonium Acetate (aqueous)
Mobile Phase B: 10 mM Ammonium Acetate in sample solvent

Row | SMILES | Solubility, pH 1 Buffer [mcg/mL] | Solubility, pH 2 Buffer [mcg/mL] | Solubility, Water [µg/mL]
1 | CC(C)Cn1c2ccc(Nc3ncccn3)cc2c2c3c(c4c(c21)CCc1nn(C)cc1-4)C(=O)NC3 [pTSA-A2, 11-isobutyl-2-methyl-8-(2-pyrimidinylamino)-2,5,6,11,12,13-hexahydro-4H-indazolo[5,4-a]pyrrolo[3,4-c]carbazol-4-one] | 11 | 5 | 20 (≈ 41.9 µM)
2 | CC(C)Cn1c2ccc(Nc3ncccn3)cc2c2c3c(c4c(c21)CCc1nn(C)cc1-4)C(=O)NC3 [AS, 11-isobutyl-2-methyl-8-(2-pyrimidinylamino)-2,5,6,11,12,13-hexahydro-4H-indazolo[5,4-a]pyrrolo[3,4-c]carbazol-4-one] | 20000 | 0.04 | <1
3 | CC(C)Cn1c2ccc(Nc3ncccn3)cc2c2c3c(c4c(c21)CCc1nn(C)cc1-4)C(=O)NC3 [pTSA-A1, 11-isobutyl-2-methyl-8-(2-pyrimidinylamino)-2,5,6,11,12,13-hexahydro-4H-indazolo[5,4-a]pyrrolo[3,4-c]carbazol-4-one] | 23 | 0.3 | <1
